The text below walks through data of patent US11452717B2, “Small molecule activators of nicotinamide phosphoribosyltransferase (NAMPT) and uses thereof” (Sanford Burnham Prebys Medical Discovery Institute, priority 2017, dated 2022).

SMILES strings stand for the structures.

As a reminder, the EC50 is the concentration needed to bring the measured effect to its halfway point.

Sequence of NAMPT enzyme (P43490 whole entry, species assumed): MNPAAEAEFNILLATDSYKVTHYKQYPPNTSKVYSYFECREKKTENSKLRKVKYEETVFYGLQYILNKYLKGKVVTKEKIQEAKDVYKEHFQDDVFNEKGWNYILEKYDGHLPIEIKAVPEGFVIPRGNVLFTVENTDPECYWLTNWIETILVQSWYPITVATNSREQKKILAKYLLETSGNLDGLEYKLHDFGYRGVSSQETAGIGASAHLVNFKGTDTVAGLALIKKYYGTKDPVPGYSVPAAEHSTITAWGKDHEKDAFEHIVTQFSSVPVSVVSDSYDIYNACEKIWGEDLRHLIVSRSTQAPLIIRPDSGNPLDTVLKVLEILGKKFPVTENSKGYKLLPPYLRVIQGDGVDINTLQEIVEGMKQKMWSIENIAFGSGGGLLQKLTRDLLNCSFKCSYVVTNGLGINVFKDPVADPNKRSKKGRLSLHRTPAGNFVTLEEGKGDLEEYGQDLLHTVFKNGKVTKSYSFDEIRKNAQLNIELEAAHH

The first test addresses NAMPT enzyme (Homo sapiens (Human), UniProt P43490). Nature of the test: Enzyme Assay and NMN Detection (NAMPT reaction, fluorescence detection of NMN). The format is biochemical. The following applies: Table B-1; NAMPT activation, NMN formation. The gist of the method:
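NMN formed was read at ex380/em460 after acetophenone/KOH derivatization and formic acid addition, using a same-day calibration curve. Final conditions: NAMPT 16 nM, nicotinamide 5 uM, PRPP 6.25 uM, ATP 120 uM, pyrophosphatase 0.04 U/ml, pH 7.5 HEPES buffer with MgCl2 and TCEP, 2 h at room temperature.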
For `O=C(NCc1cn[nH]c1)Nc1ccc(S(=O)(=O)c2ccccc2Cl)cc1` [1-[4-(2-Chloro-benzenesulfonyl)-phenyl]-3-(1H-pyrazol-4-ylmethyl)-urea], the EC50 was less than 100 nM.
For `COc1ccccc1S(=O)(=O)c1ccc(NC(=O)NCc2cn[nH]c2)cc1` [1-[4-(2-Methoxy-benzenesulfonyl)-phenyl]-3-(1H-pyrazol-4-ylmethyl)-urea], the EC50 is less than 100 nM.

The test is the same for the next values; noted with them: Table B-2; NAMPT activation, NMN formation.
`COc1ccccc1S(=O)(=O)c1ccc(NC(=O)NCc2ccncc2)cc1` [1-[4-(2-Methoxy-benzenesulfonyl)-phenyl]-3-pyridin-4-ylmethyl-urea] displayed an EC50 of less than 100 nM.

Still in this test, the particulars now being: Table B-4; NAMPT activation, NMN formation.
As for `Cn1nc(-c2ccc(NC(=O)NCc3cn[nH]c3)cc2)c2cccnc21` [1-[4-(1-Methyl-1H-pyrazolo[3,4-b]pyridin-3-yl)-phenyl]-3-(1H-pyrazol-4-ylmethyl)-urea], the EC50 lay within 100 to 2000 nM.
`Cn1nc(-c2ccc(NC(=O)NCc3cn[nH]c3)cc2)c2ncccc21` [1-[4-(1-Methyl-1H-pyrazolo[4,3-b]pyridin-3-yl)-phenyl]-3-(1H-pyrazol-4-ylmethyl)-urea] had a concentration giving a half-maximal response (EC50) of 100 to 2000 nM.
Still for that read-out and setting: with `Cn1nc(-c2ccc(NC(=O)NCc3cn[nH]c3)cc2)c2cnccc21` [1-[4-(1-Methyl-1H-pyrazolo[4,3-c]pyridin-3-yl)-phenyl]-3-(1H-pyrazol-4-ylmethyl)-urea] the figure was 2000 to 5000 nM; with `CN1CCC(S(=O)(=O)c2ccc(NC(=O)NCc3cn[nH]c3)cc2)CC1` [1-[4-(1-Methyl-piperidine-4-sulfonyl)-phenyl]-3-(1H-pyrazol-4-ylmethyl)-urea], 2000 to 5000 nM.
On the same count and under the same terms, with `O=C(NCc1cn[nH]c1)Nc1ccc(-c2cccc3[nH]cnc23)cc1` [1-[4-(1H-Benzoimidazol-4-yl)-phenyl]-3-(1H-pyrazol-4-ylmethyl)-urea] the figure was more than 20000 nM; with `O=C(NCc1cn[nH]c1)Nc1ccc(-c2n[nH]c3ccccc23)cc1` [1-[4-(1H-Indazol-3-yl)-phenyl]-3-(1H-pyrazol-4-ylmethyl)-urea], 100 to 2000 nM.
Still for that read-out and setting: the result for `O=C(NCc1cn[nH]c1)Nc1ccc(S(=O)(=O)c2ccc(Cl)cc2Cl)cc1` [1-[4-(2,4-Dichloro-benzenesulfonyl)-phenyl]-3-(1H-pyrazol-4-ylmethyl)-urea] reads 100 to 2000 nM; that for `O=C(NCc1cn[nH]c1)Nc1ccc(S(=O)(=O)c2ccc(F)cc2F)cc1` [1-[4-(2,4-Difluoro-benzenesulfonyl)-phenyl]-3-(1H-pyrazol-4-ylmethyl)-urea], less than 100 nM.
Compound `O=C(NCc1cn[nH]c1)Nc1ccc(S(=O)(=O)c2ccccc2-c2ccccc2F)cc1` [1-[4-(2′-Fluoro-biphenyl-2-sulfonyl)-phenyl]-3-(1H-pyrazol-4-ylmethyl)-urea] gave an EC50 of less than 100 nM.

Staying with this test, now noted: Table B-5; NAMPT activation, NMN formation.
Compound `Cn1cc(S(=O)(=O)c2ccc(NC(=O)NCc3cnco3)cc2)cn1` [1-[4-(1-Methyl-1H-pyrazole-4-sulfonyl)-phenyl]-3-oxazol-5-ylmethyl-urea] had an EC50 of 2000 to 5000 nM.
The same measure, in the same setting: with `Cn1nc(-c2ccc(NC(=O)NCc3cnco3)cc2)c2cccnc21` [1-[4-(1-Methyl-1H-pyrazolo[3,4-b]pyridin-3-yl)-phenyl]-3-oxazol-5-ylmethyl-urea] the figure was 2000 to 5000 nM; with `Cn1nc(-c2ccc(NC(=O)NCc3cnco3)cc2)c2ncccc21` [1-[4-(1-Methyl-1H-pyrazolo[4,3-b]pyridin-3-yl)-phenyl]-3-oxazol-5-ylmethyl-urea], 2000 to 5000 nM; with `Cn1nc(-c2ccc(NC(=O)NCc3cnco3)cc2)c2cnccc21` [1-[4-(1-Methyl-1H-pyrazolo[4,3-c]pyridin-3-yl)-phenyl]-3-oxazol-5-ylmethyl-urea], 5000 to 20000 nM.
Same read-out and setting: with `CN1CCC(S(=O)(=O)c2ccc(NC(=O)NCc3cnco3)cc2)CC1` [1-[4-(1-Methyl-piperidine-4-sulfonyl)-phenyl]-3-oxazol-5-ylmethyl-urea] the figure was 2000 to 5000 nM.
The same measure, in the same setting: the result for `O=C(NCc1cnco1)Nc1ccc(-c2cccc3[nH]cnc23)cc1` [1-[4-(1H-Benzoimidazol-4-yl)-phenyl]-3-oxazol-5-ylmethyl-urea] reads more than 20000 nM; that for `O=C(NCc1cnco1)Nc1ccc(-c2n[nH]c3ccccc23)cc1` [1-[4-(1H-Indazol-3-yl)-phenyl]-3-oxazol-5-ylmethyl-urea], 100 to 2000 nM.
On to `O=C(NCc1cnco1)Nc1ccc(S(=O)(=O)c2ccc(F)cc2F)cc1` [1-[4-(2,4-Difluoro-benzenesulfonyl)-phenyl]-3-oxazol-5-ylmethyl-urea], for which the concentration giving a half-maximal response (EC50) fell in the range of 100 to 2000 nM.
`O=C(NCc1cnco1)Nc1ccc(S(=O)(=O)c2ccccc2Cl)cc1` [1-[4-(2-Chloro-benzenesulfonyl)-phenyl]-3-oxazol-5-ylmethyl-urea] showed an EC50 of 100 to 2000 nM.

Still in this test, the particulars now being: Table B-6; NAMPT activation, NMN formation.
`Cn1cc(S(=O)(=O)c2ccc(NC(=O)NCc3ccncc3)cc2)cn1` [1-[4-(1-Methyl-1H-pyrazole-4-sulfonyl)-phenyl]-3-pyridin-4-ylmethyl-urea]: the EC50 lay in the range of 100 to 2000 nM.
As for `Cn1nc(-c2ccc(NC(=O)NCc3ccncc3)cc2)c2cccnc21` [1-[4-(1-Methyl-1H-pyrazolo[3,4-b]pyridin-3-yl)-phenyl]-3-pyridin-4-ylmethyl-urea], the EC50 was in the range of 5000 to 20000 nM.
On to `Cn1nc(-c2ccc(NC(=O)NCc3ccncc3)cc2)c2ncccc21` [1-[4-(1-Methyl-1H-pyrazolo[4,3-b]pyridin-3-yl)-phenyl]-3-pyridin-4-ylmethyl-urea], for which the EC50 fell in the range of 100 to 2000 nM.
Still for that read-out and setting: with `Cn1nc(-c2ccc(NC(=O)NCc3ccncc3)cc2)c2cnccc21` [1-[4-(1-Methyl-1H-pyrazolo[4,3-c]pyridin-3-yl)-phenyl]-3-pyridin-4-ylmethyl-urea] the figure was 5000 to 20000 nM.
Compound `CN1CCC(S(=O)(=O)c2ccc(NC(=O)NCc3ccncc3)cc2)CC1` [1-[4-(1-Methyl-piperidine-4-sulfonyl)-phenyl]-3-pyridin-4-ylmethyl-urea] yielded an EC50 of 2000 to 5000 nM.
With `O=C(NCc1ccncc1)Nc1ccc(-c2cccc3[nH]cnc23)cc1` [1-[4-(1H-Benzoimidazol-4-yl)-phenyl]-3-pyridin-4-ylmethyl-urea], the EC50 was more than 20000 nM.
`O=C(NCc1ccncc1)Nc1ccc(-c2n[nH]c3ccccc23)cc1` [1-[4-(1H-Indazol-3-yl)-phenyl]-3-pyridin-4-ylmethyl-urea] returned a half-maximal effective concentration (EC50) of 100 to 2000 nM.
On the same count and under the same terms, the result for `O=C(NCc1ccncc1)Nc1ccc(S(=O)(=O)c2ccc(Cl)cc2Cl)cc1` [1-[4-(2,4-Dichloro-benzenesulfonyl)-phenyl]-3-pyridin-4-ylmethyl-urea] reads 100 to 2000 nM; that for `O=C(NCc1ccncc1)Nc1ccc(S(=O)(=O)c2ccc(F)cc2F)cc1` [1-[4-(2,4-Difluoro-benzenesulfonyl)-phenyl]-3-pyridin-4-ylmethyl-urea], 100 to 2000 nM.
Same read-out and setting: the result for `O=C(NCc1ccncc1)Nc1ccc(S(=O)(=O)c2ccccc2-c2cccnc2)cc1` [1-[4-(2-Pyridin-3-yl-benzenesulfonyl)-phenyl]-3-pyridin-4-ylmethyl-urea] reads 100 to 2000 nM; that for `O=C(NCc1ccncc1)Nc1ccc(S(=O)(=O)c2ccccc2-c2ccncc2)cc1` [1-[4-(2-Pyridin-4-yl-benzenesulfonyl)-phenyl]-3-pyridin-4-ylmethyl-urea], 100 to 2000 nM.
In the case of `O=C(NCc1ccncc1)Nc1ccc(S(=O)(=O)c2ccccc2-c2ccccc2F)cc1` [1-[4-(2′-Fluoro-biphenyl-2-sulfonyl)-phenyl]-3-pyridin-4-ylmethyl-urea], the EC50 was less than 100 nM.
